# Assay results published in patent US20240402196A1 (Exact Sciences Corporation, priority 2018, published 2024).
# Like-named read-outs stand apart in the source and are kept apart here.
# Biological target: hemoglobin in stool samples (Homo sapiens, UniProt P68871+P69905)
# Test: Accelerated shipping simulation (35C 16 hour challenge), hemoglobin % recovery by ELISA;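 further: stool hemoglobin measured by ELISA before and after thermal-cycler shipping stress, stability given as percent of pre-stress hemoglobin recovered afterwards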
# Design: from tissue; host or cells: stool samples
# hemoglobin in stool samples, sequence (P69905 2-142 limits assumed): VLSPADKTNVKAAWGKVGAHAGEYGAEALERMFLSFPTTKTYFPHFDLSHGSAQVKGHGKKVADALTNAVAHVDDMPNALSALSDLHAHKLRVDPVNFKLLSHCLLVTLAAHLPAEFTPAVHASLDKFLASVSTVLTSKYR
# hemoglobin in stool samples, sequence (P68871 2-147 limits assumed): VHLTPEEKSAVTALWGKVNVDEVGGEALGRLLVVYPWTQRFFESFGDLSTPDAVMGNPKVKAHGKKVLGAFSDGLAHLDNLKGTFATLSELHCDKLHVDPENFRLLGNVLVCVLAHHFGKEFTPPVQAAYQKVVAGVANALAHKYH
compound,measurement,setting,value
CC1=NCC[C@@H](C(=O)O)N1 [Ectoine],Results,additive concentration 0.718 mM,No Improvement
same,Results,additive concentration 5 mM,No Improvement
O=S([O-])([O-])=S.[Na+].[Na+] [Sodium Thiosulfate],Results,,No Improvement
C=CC1=C(C)c2cc3[n-]c(cc4[n-]c(cc5nc(cc1n2)C(C)=C5C=C)c(C)c4CCC(=O)O)c(CCC(=O)O)c3C.[Cl-].[Fe+3] [Hemin (DMSO)],Results,additive concentration 0.0003%,Improvement in % Hb
C1N2CN3CN1CN(C2)C3 [Hexamethylenetetramine],Results,additive concentration 14 mM,No Improvement
same,Results,additive concentration 140 mM,No Improvement
same,Results,additive concentration 500 mM,No Improvement
O=P(O)(O)CN(CP(=O)(O)O)CP(=O)(O)O [ATMP],Results,additive concentration 0.02 mM,No Improvement
same,Results,additive concentration 0.2 mM,No Improvement
same,Results,additive concentration 2 mM,No Improvement
NO [Hydroxylamine],Results,additive concentration 25 uM,No Improvement
same,Results,additive concentration 0.5 mM,No Improvement
CC(C(=O)[O-])N(CC(=O)[O-])CC(=O)[O-].O.[Na+].[Na+].[Na+] (centres unmarked),Results,additive concentration 0.1 mM,No Improvement
same,Results,additive concentration 1 mM,No Improvement
same,Results,additive concentration 10 mM,No Improvement
O=S(=O)([O-])CS(=O)(=O)[O-].[K+].[K+] [Methanedisulfonic acid dipotassium salt],Results,additive concentration 10.69 mM,No Improvement
C=CC1=C(C)c2cc3[n-]c(cc4nc(cc5[n-]c(cc1n2)c(C)c5C=C)C(C)=C4CCC(=O)O)c(CCC(=O)O)c3C.[Cl-].[Cr+3] [Protoporphyrin IX Chromium (Vendor 1)],Results,additive concentration 1.25 uM,Improvement in % Hb
same,Results,additive concentration 5 uM,Improvement in % Hb
O=C(O)[C@@H](COP(=O)(O)O)OP(=O)(O)O [Diphosphoglycerate (DPG)],Results,additive concentration 0.0005 mM,No Improvement
same,Results,additive concentration 0.5 uM,No Improvement
same,Results,additive concentration 0.002 mM,No Improvement
same,Results,additive concentration 5 uM,No Improvement
same,Results,additive concentration 50 uM,No Improvement
same,Results,additive concentration 1 mM,No Improvement
"O=C(/C=C/C(=O)Oc1c(Br)cc(Br)cc1C(=O)O)Oc1c(Br)cc(Br)cc1C(=O)O [Bis(3,5-dibromosalilcyl)fumarate]",Results,additive concentration 5 uM,No Improvement
same,Results,additive concentration 10 uM,No Improvement
same,Results,additive concentration 100 uM,No Improvement
C=CC1=C(C)c2cc3[n-]c(cc4nc(cc5[n-]c(cc1n2)c(C)c5C=C)C(C)=C4CCC(=O)O)c(CCC(=O)O)c3C.[Cl-].[Ga+3] [Protoporphyrin IX Gallium],Results,additive concentration 1.25 uM,No Improvement
same,Results,additive concentration 5 uM,No Improvement
Deferoxamine Mesylate Salt,Results,additive concentration 10 uM,No Improvement
same,Results,additive concentration 100 uM,No Improvement
same,Results,additive concentration 1 mM,No Improvement
same,Results,additive concentration 5 mM,No Improvement
O=C(O)CCP(CCC(=O)O)CCC(=O)O [TCEP],Results,additive concentration 0.005 mM,No Improvement
same,Results,additive concentration 0.01 mM,No Improvement
same,Results,additive concentration 0.1 mM,No Improvement
same,Results,additive concentration 250 uM,No Improvement
same,Results,additive concentration 500 uM,No Improvement
same,Results,additive concentration 750 uM,No Improvement
same,Results,additive concentration 1 mM,No Improvement
C=CC1=C(C)c2cc3[n-]c(cc4nc(cc5[n-]c(cc1n2)c(C)c5C=C)C(C)=C4CCC(=O)O)c(CCC(=O)O)c3C.[Cl-].[Co+3] [Protoporphyrin IX Cobalt (Vendor 1)],Results,additive concentration 1.25 uM,Improvement in % Hb
same,Results,additive concentration 5 uM,Improvement in % Hb
C=CC1=C(C)c2cc3[n-]c(cc4nc(cc5[n-]c(cc1n2)c(C)c5C=C)C(C)=C4CCC(=O)O)c(CCC(=O)O)c3C.[Cl-].[Fe+3] [Hemin (H2O:NaOH)],Results,additive concentration 0.00005%,Improvement in % Hb
same,Results,"additive concentration 0.00005%, pH 6.5",Improvement in % Hb
same,Results,additive concentration 0.00009%,Improvement in % Hb
same,Results,"additive concentration 0.00009%, pH 6.5",Improvement in % Hb
same,Results,additive concentration 0.0003%,Improvement in % Hb
same,Results,additive concentration 0.003%,Improvement in % Hb
same,Results,"additive concentration 0.003%, pH 6.5",Improvement in % Hb
same,Results,additive concentration […],Improvement in % Hb
same,Results,"additive concentration […], pH 6.5",Improvement in % Hb
Heparin,Results,additive concentration 25 uM,No Improvement
same,Results,additive concentration 250 uM,No Improvement
C=CC1=C(C)c2cc3[n-]c(cc4nc(cc5[n-]c(cc1n2)c(C)c5C=C)C(C)=C4CCC(=O)O)c(CCC(=O)O)c3C.[Cl-].[Co+3] [Protoporphyrin IX Cobalt (Vendor 2)],Results,additive concentration 1.25 uM,Improvement in % Hb
same,Results,additive concentration 5 uM,Improvement in % Hb
O=C([O-])CN(CCN(CC(=O)[O-])CC(=O)O)CC(=O)O.[Na+].[Na+] [EDTA: Disodium Salt],Results,additive concentration 5 mM,No Improvement
same,Results,additive concentration 10 mM,No Improvement
same,Results,additive concentration 30 mM,No Improvement
NCCCC[C@H](N)C(=O)O [Lysine],Results,additive concentration 0.0687 mM,No Improvement
same,Results,additive concentration 0.687 mM,No Improvement
same,Results,additive concentration 6.87 mM,No Improvement
C=CC1=C(C)/C(=C/C2=NC(=C\c3[nH]c(/C=C4\NC(=O)C(C)=C4C=C)c(C)c3CCC(=O)O)/C(CCC(=O)O)=C2C)NC1=O [Biliverdin],Results,additive concentration 0.00003%,No Improvement
same,Results,additive concentration 0.00030%,No Improvement
same,Results,additive concentration 0.00300%,No Improvement
same,Results,additive concentration 0.03000%,No Improvement
[F-].[Na+] [Sodium Fluoride],Results,additive concentration 85 uM,No Improvement
same,Results,additive concentration 850 uM,No Improvement
OC[C@H]1O[C@H](OC[C@H]2O[C@H](O[C@]3(CO)O[C@H](CO)[C@@H](O)[C@@H]3O)[C@H](O)[C@@H](O)[C@@H]2O)[C@H](O)[C@@H](O)[C@H]1O [Raffinose],Results,additive concentration 5 uM,No Improvement
same,Results,additive concentration 50 uM,No Improvement
same,Results,additive concentration 5 mM,No Improvement
same,Results,additive concentration 24 mM,No improvement
N[C@@H](CCC(=O)N[C@@H](CS)C(=O)NCC(=O)O)C(=O)O [Glutathione],Results,additive concentration 10 uM,No Improvement
same,Results,additive concentration 100 uM,No Improvement
same,Results,additive concentration 1 mM,No Improvement
same,Results,additive concentration 3 mM,No Improvement
NC(N)=O [Urea],Results,additive concentration 25 uM,No Improvement
same,Results,additive concentration 250 uM,No Improvement
same,Results,additive concentration 500 uM,No Improvement
same,Results,additive concentration 5 mM,No Improvement
same,Results,additive concentration 50 mM,No Improvement
same,Results,additive concentration 100 mM,No Improvement
NCC(=O)O [Glycine (no sample)],Results,,No improvement
C=CCn1cc[n+](C)c1.[Cl-] [1-Allyl-3-methylimidazolium Chloride],Results,additive concentration 0.01 mM,No Improvement
same,Results,additive concentration 0.1 mM,No Improvement
same,Results,additive concentration 1 mM,No Improvement
OC[C@H]1OC(O)[C@H](O)[C@@H](O)[C@@H]1O (some centres unmarked) [Glucose],Results,additive concentration 72 uM,No Improvement
same,Results,additive concentration 720 uM,No Improvement
O=C(O)CC(NCCNC(CC(=O)O)C(=O)O)C(=O)O (centres unmarked),Results,additive concentration 10 uM,No Improvement
same,Results,additive concentration 100 uM,No Improvement
same,Results,additive concentration 1 mM,No Improvement
same,Results,additive concentration 10 mM,No Improvement
C=CC1=C(C)c2cc3[n-]c(cc4nc(cc5[n-]c(cc1n2)c(C)c5C=C)C(C)=C4CCC(=O)O)c(CCC(=O)O)c3C.[Cl-].[Cr+3] [Protoporphyrin IX Chromium (Vendor 2)],Results,additive concentration 1.25 uM,Improvement in % Hb
same,Results,additive concentration 5 uM,Improvement in % Hb
O=c1c(-c2ccc(O)cc2)coc2cc(O)ccc12 [Daidzein],Results,additive concentration 0.01 mM,No Improvement
same,Results,additive concentration 0.1 mM,No Improvement
same,Results,additive concentration 1 mM,No Improvement
"O.O=c1cc(-c2ccccc2)oc2c(O)c(O)ccc12 [7,8 dihydroxyflavone hydrate]",Results,additive concentration 0.01 mM,No Improvement
same,Results,additive concentration 0.1 mM,No improvement
same,Results,additive concentration 1 mM,No Improvement
O=c1[nH]c(=O)c2[nH]c(=O)[nH]c2[nH]1 [Uric Acid],Results,additive concentration 0.6 uM,No Improvement
same,Results,additive concentration 6 uM,No Improvement
same,Results,additive concentration 60 uM,No Improvement
CCCCn1cc[n+](C)c1.[Cl-] [1-Butyl-3-methylimidazoium Chloride],Results,additive concentration 0.01 mM,No Improvement
same,Results,additive concentration 0.1 mM,No Improvement
same,Results,additive concentration 1 mM,No Improvement
O=C(O)CCCCC1CCSS1 (racemic) [(±)-α-Lipoic acid],Results,additive concentration […],No Improvement
CC(O)CO (centres unmarked) [Propylene Glycol],Results,Additive Concentration 0.10%,No Improvement
same,Results,Additive Concentration 0.50%,No Improvement
same,Results,Additive Concentration 1%,No Improvement
N[C@@H](Cc1c[nH]cn1)C(=O)O [Histidine],Results,additive concentration 0.0028 mM,No Improvement
same,Results,additive concentration 0.0228 mM,No Improvement
same,Results,additive concentration 0.228 mM,No Improvement
O=S(=O)([O-])CCCS(=O)(=O)[O-].[Na+].[Na+] [Propanedisulfonic acid disodium salt],Results,additive concentration 0.4 mM,No Improvement
same,Results,additive concentration 4 mM,No Improvement
same,Results,additive concentration 40 mM,No Improvement
Dextran Sulphate,Results,Additive Concentration 1 uM,No Improvement
same,Results,additive concentration 0.2 uM,No Improvement
same,Results,additive concentration 2 uM,No Improvement
same,Results,additive concentration 0.5 mM,No Improvement
O=C(O)CC(NC(CC(=O)O)C(=O)O)C(=O)O (centres unmarked) [Iminodisuccinic acid],Results,additive concentration 10 mM,No Improvement
C=CC1=C(C)c2cc3[n-]c(cc4nc(cc5[n-]c(cc1n2)c(C)c5C=C)C(C)=C4CCC(=O)O)c(CCC(=O)O)c3C.[Cl-].[Co+3] [Protoporphyrin IX Cobalt (Vendor 3)],Results,additive concentration 1.25 uM,Improvement in % Hb
same,Results,additive concentration 5 uM,Improvement in % Hb
O[C@H](CS)[C@H](O)CS (racemic) [Dithiothreitol],Results,Additive Concentration 1 uM,No Improvement
same,Results,additive concentration 10 uM,No Improvement
same,Results,additive concentration 0.1 mM,No Improvement
same,Results,additive concentration 1 mM,No Improvement
c1c[nH]cn1 [Imidazole],Results,additive concentration 25 uM,No Improvement
same,Results,additive concentration 0.5 mM,No Improvement
